For assay [1], the target named is T1, Serine protease 1 (Bos taurus, UniProt P00760).
T1 sequence (P00760 whole entry): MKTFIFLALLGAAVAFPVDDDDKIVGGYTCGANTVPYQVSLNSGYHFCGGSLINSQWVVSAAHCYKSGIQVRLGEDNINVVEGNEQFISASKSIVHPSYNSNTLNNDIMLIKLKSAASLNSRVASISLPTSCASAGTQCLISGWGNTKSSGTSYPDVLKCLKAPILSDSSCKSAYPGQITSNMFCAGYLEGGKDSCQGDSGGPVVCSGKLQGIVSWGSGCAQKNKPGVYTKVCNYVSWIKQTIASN
Kind of assay: In vitro inhibitory activity against bovine cationic trypsin.

Assay [2] has as its target Prothrombin (Homo sapiens, UniProt P00734).
Description: In vitro inhibitory activity against human coagulation factor II
The target in assay [3] is Coagulation factor X (Homo sapiens, UniProt P00742). Kind of assay: In vitro inhibitory activity against human Coagulation factor X.
The species entered for assay [4] is Homo sapiens. Kind of assay: Concentration required to double the prothrombin based clotting time in human plasma. The assay is classed as functional.

The term Ki denotes a dissociation constant, usually derived from enzyme kinetics or from competition with a known ligand. A high value points to a looser hold on the target.

Molecules are shown by their SMILES.

Coagulation factor X, sequence (P00742 41-179 limits assumed): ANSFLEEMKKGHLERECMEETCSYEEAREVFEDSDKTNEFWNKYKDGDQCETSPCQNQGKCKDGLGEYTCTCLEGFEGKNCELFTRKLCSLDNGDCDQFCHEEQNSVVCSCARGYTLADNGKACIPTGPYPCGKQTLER
Coagulation factor X, sequence (P00742 235-488 limits assumed): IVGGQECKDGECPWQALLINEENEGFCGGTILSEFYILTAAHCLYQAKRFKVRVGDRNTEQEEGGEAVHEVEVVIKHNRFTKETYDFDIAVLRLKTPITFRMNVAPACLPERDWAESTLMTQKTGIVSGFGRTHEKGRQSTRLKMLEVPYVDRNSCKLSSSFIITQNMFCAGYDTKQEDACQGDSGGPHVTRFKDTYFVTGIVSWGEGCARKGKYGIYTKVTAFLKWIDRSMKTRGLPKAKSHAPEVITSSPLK

For `CC(=N)N1CCC(Oc2ccc3c(c2)nc(CCC(=O)O)n3Cc2ccc3ccc(C(=N)N)cc3c2)CC1`, the Ki in assay [1] was 14 nM; in assay [2] it was > 5000 nM; in assay [3], 5.9 nM.

As to `CCC(C)c1nc2cc(OC3CCN(C(C)=N)CC3)ccc2n1Cc1ccc2ccc(C(=N)N)cc2c1` (stereo unspecified), the Ki is 13 nM in assay [1], 2300 nM in assay [2] and 3.3 nM in assay [3].

`COC(=O)CN(c1ccc2c(c1)nc(C)n2Cc1ccc2ccc(C(=N)N)cc2c1)C1CCN(C(C)=N)CC1`: the values for the Ki in assay [1] and in assay [2] were 7.6 nM and 2700 nM, respectively.

With `CCCc1nc2cc(OC3CCN(C(C)=N)CC3)ccc2n1Cc1ccc2ccc(C(=N)N)cc2c1`, the figures for the inhibition constant (Ki) in assay [1], in assay [2] and in assay [3] were 16 nM, 2400 nM and 4.5 nM, respectively.

`CCC(C)c1nc2ccc(OC3CCN(C(C)=N)CC3)cc2n1Cc1ccc2ccc(C(=N)N)cc2c1` (stereo unspecified): the Ki in assay [1] worked out at 10 nM; in assay [2] it was 160 nM; in assay [3], 0.12 nM. The PT in assay [4] was determined as 280 nM.

As to `CC(=N)N1CCC(Oc2ccc3nc(C(C)C)n(Cc4ccc5ccc(C(=N)N)cc5c4)c3c2)CC1`, the Ki in assay [1] is 5.7 nM; in assay [2] it was 32 nM; in assay [3], 0.026 nM. The PT in assay [4] was found to be 68 nM.

Regarding `COC(=O)CCCN(c1ccc2nc(C)n(Cc3ccc4ccc(C(=N)N)cc4c3)c2c1)C1CCN(C(C)=N)CC1`, the values for the inhibitory constant (Ki) in assay [1], in assay [2] and in assay [3] were 260 nM, 4610 nM and 300 nM, respectively.

For `CC(=N)N1CCC(N(CC(C)C(=O)O)c2ccc3nc(C)n(Cc4ccc5ccc(C(=N)N)cc5c4)c3c2)CC1` (stereo unspecified), the results for the Ki in assay [1], in assay [2] and in assay [3] were 47 nM, 650 nM and 3 nM, respectively.

For the compound `CC(=N)N1CCC(Oc2ccc3nc(C(C)(C)C)n(Cc4ccc5ccc(C(=N)N)cc5c4)c3c2)CC1`, the Ki in assay [1] was 7 nM; in assay [2], 48 nM; in assay [3], 0.046 nM. The PT in assay [4] was determined as 260 nM.

On to `COC(=O)C(C)CN(c1ccc2c(c1)nc(C)n2Cc1ccc2ccc(C(=N)N)cc2c1)C1CCN(C(C)=N)CC1` (stereo unspecified), for which the values for the Ki in assay [1], in assay [2] and in assay [3] were 160 nM, 5000 nM and 80 nM, respectively.

Turning to `CCCc1nc2ccc(OC3CCN(C(C)=N)CC3)cc2n1Cc1ccc2ccc(C(=N)N)cc2c1`, the Ki in assay [1] worked out at 6.8 nM; in assay [2], 70 nM; in assay [3] it was 0.23 nM. For the same compound, the PT in assay [4] is 290 nM.

On to `CC(=N)N1CCC(N(CCCC(=O)O)c2ccc3c(c2)nc(C)n3Cc2ccc3ccc(C(=N)N)cc3c2)CC1`, for which the Ki stood at 800 nM in assay [1], 5000 nM in assay [2] and 370 nM in assay [3].

`CC(=N)N1CCC(N(CCCC(=O)O)c2ccc3nc(C)n(Cc4ccc5ccc(C(=N)N)cc5c4)c3c2)CC1`: the Ki in assay [1] came to 670 nM; in assay [2], 5000 nM; in assay [3], 420 nM.

Consider `CCOC(=O)CCC(=O)N(c1ccc2c(c1)nc(C)n2Cc1ccc2ccc(C(=N)N)cc2c1)C1CCN(C(C)=N)CC1`, for which the figures for the Ki in assay [1], in assay [2] and in assay [3] were 800 nM, 5000 nM and 370 nM, respectively.

With `CC(=N)N1CCC(Oc2ccc3c(c2)ncn3Cc2ccc3ccc(C(=N)N)cc3c2)CC1`, the Ki in assay [1] is 8.2 nM; in assay [2] it was > 5000 nM; in assay [3] it was 6.3 nM.

`CCCCc1nc2ccc(OC3CCN(C(C)=N)CC3)cc2n1Cc1ccc2ccc(C(=N)N)cc2c1`: the values for the Ki in assay [1], in assay [2] and in assay [3] were 5.7 nM, 230 nM and 0.23 nM, respectively. The PT in assay [4] is 625 nM.

Regarding `COC(=O)CN(c1ccc2nc(C)n(Cc3ccc4ccc(C(=N)N)cc4c3)c2c1)C1CCN(C(C)=N)CC1`, the Ki in assay [1] was 11 nM; in assay [2], 98 nM; in assay [3] it was 0.3 nM.

Turning to `CC(=N)N1CCC(N(C(=O)CCC(=O)O)c2ccc3nc(C)n(Cc4ccc5ccc(C(=N)N)cc5c4)c3c2)CC1`, the Ki in assay [1] is 670 nM; in assay [2], 5000 nM; in assay [3], 417 nM.

Take `CC(=N)N1CCC(Oc2ccc3ncn(Cc4ccc5ccc(C(=N)N)cc5c4)c3c2)CC1`: the Ki turned out to be 50 nM in assay [1], 810 nM in assay [2] and 2.9 nM in assay [3]. In addition, the PT in assay [4] amounted to 450 nM.

As to `CC(=N)N1CCC(Oc2ccc3nc(C)n(Cc4ccc5ccc(C(=N)N)cc5c4)c3c2)CC1`, the Ki in assay [2] is 230 nM. For the same compound, the PT in assay [4] was 350 nM.

On to `CC(=N)N1CCC(Oc2ccc3nc(CCC(=O)O)n(Cc4ccc5ccc(C(=N)N)cc5c4)c3c2)CC1`, for which the inhibitory constant (Ki) in assay [1] is 18 nM; in assay [2], 2670 nM; in assay [3], 1.3 nM.

Regarding `CC(=N)N1CCC(Oc2ccc3nc(CCC(N)=O)n(Cc4ccc5ccc(C(=N)N)cc5c4)c3c2)CC1`, the values for the Ki in assay [1], in assay [2] and in assay [3] were 4.4 nM, 590 nM and 1 nM, respectively.

With `CCCCc1nc2cc(OC3CCN(C(C)=N)CC3)ccc2n1Cc1ccc2ccc(C(=N)N)cc2c1`, the Ki in assay [1] was determined as 14 nM; in assay [2] it was 2000 nM; in assay [3] it was 2.8 nM.

Take `CC(=N)N1CCC(Oc2ccc3c(c2)nc(C(C)C)n3Cc2ccc3ccc(C(=N)N)cc3c2)CC1`: the Ki in assay [1] turned out to be 16 nM; in assay [3], 2 nM.

As for `CCOC(=O)CCC(=O)N(c1ccc2nc(C)n(Cc3ccc4ccc(C(=N)N)cc4c3)c2c1)C1CCN(C(C)=N)CC1`, the values for the Ki in assay [1], in assay [2] and in assay [3] were 256 nM, 4600 nM and 300 nM, respectively.

With `CC(=N)N1CCC(Oc2ccc3c(c2)nc(C)n3Cc2ccc3ccc(C(=N)N)cc3c2)CC1`, the Ki in assay [1] turned out to be 16 nM; in assay [2] it was 3900 nM; in assay [3], 6.2 nM.

For the compound `CC(=N)N1CCC(N(CC(N)=O)c2ccc3nc(C)n(Cc4ccc5ccc(C(=N)N)cc5c4)c3c2)CC1`, the figures for the Ki in assay [1], in assay [2] and in assay [3] were 28 nM, 490 nM and 0.46 nM, respectively.

As to `CCc1nc2cc(OC3CCN(C(C)=N)CC3)ccc2n1Cc1ccc2ccc(C(=N)N)cc2c1`, the Ki came to 17 nM in assay [1], 2100 nM in assay [2] and 4 nM in assay [3].

Take `COC(=O)CCCN(c1ccc2c(c1)nc(C)n2Cc1ccc2ccc(C(=N)N)cc2c1)C1CCN(C(C)=N)CC1`: the Ki in assay [1] is 60 nM; in assay [2], 6000 nM; in assay [3] it was 30 nM.

As to `CC(=N)N1CCC(Oc2ccc3c(c2)nc(C(C)(C)C)n3Cc2ccc3ccc(C(=N)N)cc3c2)CC1`, the Ki in assay [1] amounted to 18 nM; in assay [2] it was 950 nM; in assay [3] it was 2 nM.

For `CC(=N)N1CCC(N(CC(C)C(=O)O)c2ccc3c(c2)nc(C)n3Cc2ccc3ccc(C(=N)N)cc3c2)CC1` (stereo unspecified), the inhibitory constant (Ki) was found to be 120 nM in assay [1], 5000 nM in assay [2] and 80 nM in assay [3].

On to `CCc1nc2ccc(OC3CCN(C(C)=N)CC3)cc2n1Cc1ccc2ccc(C(=N)N)cc2c1`, for which the inhibitory constant (Ki) in assay [1] stood at 7.7 nM; in assay [2] it was 60 nM; in assay [3] it was 0.087 nM. Moreover, the PT in assay [4] was determined as 130 nM.

On to `CC(=N)N1CCC(Oc2ccc3c(c2)nc(CCC(N)=O)n3Cc2ccc3ccc(C(=N)N)cc3c2)CC1`, for which the Ki in assay [1] was 10 nM; in assay [2] it was > 5000 nM; in assay [3], 3.6 nM.

`COC(=O)C(C)CN(c1ccc2nc(C)n(Cc3ccc4ccc(C(=N)N)cc4c3)c2c1)C1CCN(C(C)=N)CC1` (stereo unspecified): the Ki came out at 41 nM in assay [1], 300 nM in assay [2] and 1.1 nM in assay [3].

The values above are taken from ChEMBL document CHEMBL1133358, “Design, synthesis, and in vitro biological activity of benzimidazole based factor Xa inhibitors” (Bioorg Med Chem Lett, 2000).
